Results reported in US20120071475A1, “UREA DERIVATIVES HAVING PI3K-INHIBITING ACTIVITY” (SHIONOGI & CO., LTD., priority 2009, published 2012).
Read-outs that look alike come from different tables or passages of the source.

What was measured:
PI3Kα = PI3Kα (Homo sapiens, UniProt P42336); experiment: PI3Kα inhibitory activity (Ki value); type: biochemical
Experimental: According to Example 2 above, after 80 μg/mL PI-3 kinase γ of the enzyme solution (80 μg/mL PI-3 kinase γ, 10 mmol/L MgCl2, 5 mmol/L DTT) was changed to 0.8 μg/mL PI-3 kinase α, an inhibition ratio was calculated by a method similar to the method for measuring PI3Kγ inhibitory activity, and then defined as the PI3Kα inhibitory activity.
The α inhibitory activity (Ki value) of a compound was evaluated according to the following procedure.
According to Example 4 above, a Km value for PI3Kα was determined to calculate a Ki value.

[1] = Metabolic stability test (pooled human liver microsome); type: in vitro ADME; details: percentage of test compound remained after 30 minutes, pooled human liver microsome 0.5 mg protein/mL, 1 mmol/L NADPH, 37° C., compound 0.5 μM
In short: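 Pooled human liver microsomes (0.5 mg protein/mL) incubated with compound and 1 mmol/L NADPH at 37° C. in pH 7.4 Tris buffer for 0 or 30 min. Parent quantified by LC/MS/MS after methanol/acetonitrile quench; value is % remaining at 30 min versus 0 min.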

hERG channel (IKr) = biological target: T1, hERG channel (IKr) (Homo sapiens, UniProt Q12809); experiment: hERG test (whole-cell patch-clamp, IKr in HEK293 cells); type: cell-based; details: human, HEK293 cells expressing hERG channel, pH 7.4, inhibition of maximum tail current (IKr), compound 1 μM
T1 construct: expressed in transfected cells; host or cells: HEK293
T1 sequence (Q12809 whole entry): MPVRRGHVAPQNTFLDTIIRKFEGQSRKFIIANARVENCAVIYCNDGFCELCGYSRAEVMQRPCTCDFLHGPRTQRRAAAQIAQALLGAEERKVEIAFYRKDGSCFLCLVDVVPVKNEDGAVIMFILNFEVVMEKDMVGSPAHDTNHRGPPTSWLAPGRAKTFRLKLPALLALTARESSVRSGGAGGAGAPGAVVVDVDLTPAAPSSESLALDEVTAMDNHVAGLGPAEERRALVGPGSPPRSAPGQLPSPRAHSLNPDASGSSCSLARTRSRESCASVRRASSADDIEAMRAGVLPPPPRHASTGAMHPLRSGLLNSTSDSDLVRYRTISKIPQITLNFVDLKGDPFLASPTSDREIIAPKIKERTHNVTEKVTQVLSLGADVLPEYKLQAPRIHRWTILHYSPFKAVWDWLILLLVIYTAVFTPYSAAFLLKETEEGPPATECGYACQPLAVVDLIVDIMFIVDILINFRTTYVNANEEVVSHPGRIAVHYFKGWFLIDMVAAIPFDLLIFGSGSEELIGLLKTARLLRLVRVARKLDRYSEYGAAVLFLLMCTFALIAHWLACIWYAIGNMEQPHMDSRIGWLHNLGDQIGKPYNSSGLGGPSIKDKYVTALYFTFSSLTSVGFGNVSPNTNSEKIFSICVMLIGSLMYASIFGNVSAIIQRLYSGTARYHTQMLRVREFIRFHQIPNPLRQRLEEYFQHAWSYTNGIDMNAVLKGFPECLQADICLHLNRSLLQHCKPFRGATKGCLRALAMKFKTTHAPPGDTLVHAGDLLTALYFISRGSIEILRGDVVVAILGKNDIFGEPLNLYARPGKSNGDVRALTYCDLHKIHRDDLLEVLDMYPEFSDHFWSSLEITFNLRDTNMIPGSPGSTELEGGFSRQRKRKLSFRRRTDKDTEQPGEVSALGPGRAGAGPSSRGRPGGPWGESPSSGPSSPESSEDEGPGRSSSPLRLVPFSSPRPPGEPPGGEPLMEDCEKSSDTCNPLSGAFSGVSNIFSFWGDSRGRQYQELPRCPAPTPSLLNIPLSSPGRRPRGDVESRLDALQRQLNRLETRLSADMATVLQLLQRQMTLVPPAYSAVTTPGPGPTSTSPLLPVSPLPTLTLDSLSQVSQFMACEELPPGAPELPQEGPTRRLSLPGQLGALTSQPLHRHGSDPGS
In short: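 hERG-expressing HEK293 cells, automated whole-cell patch clamp: hold −80 mV, +50 mV for 2 s, then −50 mV for 2 s to record IKr tail current. Compound in extracellular solution (pH 7.4) for 10 min at room temperature; inhibition of maximum tail current calculated versus pre-application and compared with 0.1% DMSO vehicle.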

[2] = tested on: CYP1A2, CYP2C9, CYP2C19, CYP2D6 and CYP3A4 (one value for the five species); experiment: CYP inhibition test, five CYP species together (5CYPs_IC50; pooled human liver microsome); type: in vitro ADME; details: human, microsomes
In short: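 Pooled human liver microsomes (0.2 mg/mL) in 50 mM Hepes were incubated with a substrate cocktail of 0.5 μM ethoxyresorufin, 100 μM tolbutamide, 50 μM S-mephenytoin, 5 μM dextromethorphan and 1 μM terfenadine plus NADPH for 15 min at 37 °C. Compound tested at 1–20 μM (4 points). Metabolites read by fluorescence or LC/MS/MS, and IC50 derived by logistic fit against a DMSO control.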

[3] = class symbols, read-out: PI3K α Ki

PI3Kα, sequence (P42336 whole entry, species assumed): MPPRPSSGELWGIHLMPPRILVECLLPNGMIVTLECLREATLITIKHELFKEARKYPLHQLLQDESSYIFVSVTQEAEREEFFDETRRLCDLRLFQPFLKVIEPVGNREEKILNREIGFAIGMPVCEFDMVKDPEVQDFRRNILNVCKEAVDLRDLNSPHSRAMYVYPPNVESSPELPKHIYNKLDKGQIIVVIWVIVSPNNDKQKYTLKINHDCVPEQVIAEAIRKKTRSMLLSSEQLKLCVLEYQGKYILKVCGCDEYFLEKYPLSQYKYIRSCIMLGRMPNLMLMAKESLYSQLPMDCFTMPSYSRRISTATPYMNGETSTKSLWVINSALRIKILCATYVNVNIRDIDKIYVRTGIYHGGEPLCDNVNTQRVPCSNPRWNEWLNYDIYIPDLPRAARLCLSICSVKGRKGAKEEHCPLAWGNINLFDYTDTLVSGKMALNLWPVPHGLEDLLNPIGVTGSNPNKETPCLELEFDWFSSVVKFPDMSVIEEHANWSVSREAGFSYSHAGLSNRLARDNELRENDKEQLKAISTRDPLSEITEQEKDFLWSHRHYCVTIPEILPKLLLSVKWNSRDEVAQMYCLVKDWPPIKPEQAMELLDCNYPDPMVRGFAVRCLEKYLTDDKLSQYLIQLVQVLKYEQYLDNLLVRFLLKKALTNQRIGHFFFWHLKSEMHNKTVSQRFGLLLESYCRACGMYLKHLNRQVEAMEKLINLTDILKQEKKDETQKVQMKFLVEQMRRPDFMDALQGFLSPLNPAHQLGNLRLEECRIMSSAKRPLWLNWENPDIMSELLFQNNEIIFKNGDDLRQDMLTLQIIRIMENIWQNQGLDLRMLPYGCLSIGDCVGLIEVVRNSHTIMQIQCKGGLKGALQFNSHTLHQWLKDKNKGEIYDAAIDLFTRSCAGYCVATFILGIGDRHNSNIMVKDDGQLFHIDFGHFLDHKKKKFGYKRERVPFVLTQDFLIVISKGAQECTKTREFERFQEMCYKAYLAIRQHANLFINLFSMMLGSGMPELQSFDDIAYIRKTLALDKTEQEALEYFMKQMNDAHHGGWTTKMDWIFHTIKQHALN
PI3Kα, sequence (P27986 whole entry partner, species assumed): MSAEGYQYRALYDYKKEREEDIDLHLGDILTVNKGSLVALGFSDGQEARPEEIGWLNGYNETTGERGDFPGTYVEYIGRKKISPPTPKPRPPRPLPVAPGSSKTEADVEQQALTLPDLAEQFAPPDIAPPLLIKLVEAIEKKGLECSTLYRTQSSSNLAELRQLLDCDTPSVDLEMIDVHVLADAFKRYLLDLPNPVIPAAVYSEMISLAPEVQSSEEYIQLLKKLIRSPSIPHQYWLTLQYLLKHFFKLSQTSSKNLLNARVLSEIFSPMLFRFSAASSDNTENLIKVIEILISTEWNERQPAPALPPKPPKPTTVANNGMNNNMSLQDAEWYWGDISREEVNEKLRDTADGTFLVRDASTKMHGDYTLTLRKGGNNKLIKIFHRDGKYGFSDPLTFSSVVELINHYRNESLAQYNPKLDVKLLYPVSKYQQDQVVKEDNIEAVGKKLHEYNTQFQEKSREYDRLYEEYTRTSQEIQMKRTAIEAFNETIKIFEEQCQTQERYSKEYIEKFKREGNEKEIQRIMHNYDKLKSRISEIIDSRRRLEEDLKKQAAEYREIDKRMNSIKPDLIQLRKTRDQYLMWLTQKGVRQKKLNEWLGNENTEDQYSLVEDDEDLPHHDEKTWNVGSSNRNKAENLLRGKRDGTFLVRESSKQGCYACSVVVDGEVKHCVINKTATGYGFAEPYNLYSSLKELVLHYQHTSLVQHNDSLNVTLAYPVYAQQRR

Ki (PI3Kα; [3]) | Ki (PI3Kα; read-out: PI3Kα Ki value) | hLMS_ox(at 0.5 μM) % [1] | IC50 at 15 min [2] | SMILES | inhibition at 10 min, 1 µM (hERG channel (IKr))
> 3 µM | > 12 µM |  |  | COc1cc(N2CCc3nc(NC(=O)Nc4ccccc4C(=O)NC(C)C)sc3C2)nc(OC)n1 [Compound I-12] | 
 |  | 88.2% | ≥ 10 µM | COc1cc(N2CCc3nc(NC(=O)Nc4ccccc4C(=O)NCCF)sc3C2)nc(OC)n1 [Compound I-88] | 5.7%
> 3 µM |  |  | ≥ 10 µM | COc1nc(Cl)cc(N2CCc3nc(NC(=O)Nc4cnccc4C(=O)NC(C)C)sc3C2)n1 [Compound I-91] | 0.9%
≤ 3 µM | 1.1 µM |  | > 20 µM | COc1cncc(-c2ccc3nc(NC(=O)Nc4ccccc4OCCC(C)C)cn3n2)c1 [Compound I-114] | 
> 3 µM | > 7 µM | 92.6% |  | Cc1nc(NC(=O)Nc2ccccc2C(=O)NC(C)C)sc1-c1ccc(S(C)(=O)=O)c(F)c1 [Compound I-127] | 0.6%
> 3 µM |  |  | ≥ 10 µM | CC(C)NC(=O)c1ccccc1NC(=O)Nc1nc2c(s1)CN(c1cncc(C(F)(F)F)c1)CC2 [Compound I-131] | 3.9%
 |  | 84.8% |  | COc1cc(N2CCc3nc(NC(=O)Nc4ccccc4C(=O)NC(C)C(O)C(F)(F)F)sc3C2)nc(OC)n1 (centres unmarked) [Compound I-139] | 
≤ 3 µM |  | 87.9% |  | COc1cc(N2CCc3nc(NC(=O)Nc4cn(C)nc4C(=O)NCC(F)(F)F)sc3C2)nc(OC)n1 [Compound I-148] | 3.3%
 |  |  | ≥ 10 µM | Cc1nc(NC(=O)Nc2ccccc2C(=O)NC(C)C)sc1-c1csc(S(=O)(=O)N(C)CCN(C)C)c1 [Compound I-191] | 
 |  | 110% |  | COc1cc(N2CCc3nc(NC(=O)Nc4ccccc4C(=O)NN4CCN(C)CC4)sc3C2)nc(OC)n1 [Compound I-195] | 
> 3 µM |  |  |  | COc1nc(Cl)cc(N2CCc3nc(NC(=O)Nc4ccccc4C(=O)NC4CCCOC4)sc3C2)n1 (centres unmarked) [Compound I-197] | 4.8%
 |  |  | > 20 µM | CC(C)NC(=O)c1ccccc1NC(=O)Nc1nc2c(s1)CN(c1cccc(S(C)(=O)=O)c1)CC2 [Compound I-198] | 5.9%
 |  | 88.5% | > 20 µM | COc1cc(N2CCc3nc(NC(=O)Nc4ccccc4C(=O)NC4CCOCC4)sc3C2)nc(OC)n1 [Compound I-203] | 6.7%
 |  |  | ≥ 10 µM | C[C@@H](CO)NC(=O)c1ccccc1NC(=O)Nc1nc2c(s1)CN(c1cncc(S(C)(=O)=O)c1)CC2 [Compound I-211] | 
> 3 µM |  | 82.5% | ≥ 10 µM | COc1cncc(-c2cc(NC(=O)Nc3ccccc3C(=O)NC(C)C)nn2C)c1 [Compound I-226] | 
